According to patent EP4745137A1 (Gluetacs Therapeutics (Shanghai) Co., Ltd., priority 2023, dated 2025):
pIC50: −log10 of the molar value. Like-named read-outs stand apart in the source and are kept apart here.

Tests used:
IKZF3 = molecular target: T1, IKZF3 (Homo sapiens, UniProt Q96SW2+Q9UKT9); experiment: Western-blot assay of substrate protein degradation in hPBMCs, IKZF3; type: cell-based; details: 24 hours of compound treatment, compounds tested at 50 nM and 500 nM (concentration of the table not stated)
T1 construct: endogenous in cells; host or cells: hPBMCs (Milecell Biotechnologies)

WEE1 = molecular target: T2, WEE1 (Homo sapiens, UniProt P30291+Q96SW2); experiment: Western-blot assay of substrate protein degradation in hPBMCs, WEE1; type: cell-based; details: 24 hours of compound treatment, compounds tested at 50 nM and 500 nM (concentration of the table not stated)
T2 construct: endogenous in cells; host or cells: hPBMCs (Milecell Biotechnologies)

IKZF1 = molecular target: T3, IKZF1 (Homo sapiens, UniProt Q13422+Q96SW2); experiment: Western-blot assay of substrate protein degradation in hPBMCs, IKZF1; type: cell-based; details: 24 hours of compound treatment, compounds tested at 50 nM and 500 nM (concentration of the table not stated)
T3 construct: endogenous in cells; host or cells: hPBMCs (Milecell Biotechnologies)

[1] = molecular target: T4, human Cereblon WT GST-tagged protein (Homo sapiens, UniProt Q96SW2); experiment: CRBN-binding affinity by HTRF (CEREBLON BINDING kit)
T4 construct: purchased CISBIO 64BDCRBNPEH

GSPT1 = molecular target: T5, GSPT1 (Homo sapiens, UniProt P15170+Q96SW2); experiment: Western-blot assay of substrate protein degradation in hPBMCs, GSPT1; type: cell-based; details: 24 hours of compound treatment, compounds tested at 50 nM and 500 nM (concentration of the table not stated)
T5 construct: endogenous in cells; host or cells: hPBMCs (Milecell Biotechnologies)

CK1α = molecular target: T6, CK1α (Homo sapiens, UniProt P48729+Q96SW2); experiment: Western-blot assay of substrate protein degradation in hPBMCs, CK1α; type: cell-based; details: 24 hours of compound treatment, compounds tested at 50 nM and 500 nM (concentration of the table not stated)
T6 construct: endogenous in cells; host or cells: hPBMCs (Milecell Biotechnologies)

IKZF2 = molecular target: T7, IKZF2 (Homo sapiens, UniProt Q96SW2+Q9UKS7); experiment: Western-blot assay of substrate protein degradation in hPBMCs, IKZF2; type: cell-based; details: 24 hours of compound treatment, compounds tested at 50 nM and 500 nM (concentration of the table not stated)
T7 construct: endogenous in cells; host or cells: hPBMCs (Milecell Biotechnologies)

[2] = HTRF inhibitory activity, CEREBLON BINDING kit, read-out: HTRF IC50

T2 sequence (P30291 whole entry): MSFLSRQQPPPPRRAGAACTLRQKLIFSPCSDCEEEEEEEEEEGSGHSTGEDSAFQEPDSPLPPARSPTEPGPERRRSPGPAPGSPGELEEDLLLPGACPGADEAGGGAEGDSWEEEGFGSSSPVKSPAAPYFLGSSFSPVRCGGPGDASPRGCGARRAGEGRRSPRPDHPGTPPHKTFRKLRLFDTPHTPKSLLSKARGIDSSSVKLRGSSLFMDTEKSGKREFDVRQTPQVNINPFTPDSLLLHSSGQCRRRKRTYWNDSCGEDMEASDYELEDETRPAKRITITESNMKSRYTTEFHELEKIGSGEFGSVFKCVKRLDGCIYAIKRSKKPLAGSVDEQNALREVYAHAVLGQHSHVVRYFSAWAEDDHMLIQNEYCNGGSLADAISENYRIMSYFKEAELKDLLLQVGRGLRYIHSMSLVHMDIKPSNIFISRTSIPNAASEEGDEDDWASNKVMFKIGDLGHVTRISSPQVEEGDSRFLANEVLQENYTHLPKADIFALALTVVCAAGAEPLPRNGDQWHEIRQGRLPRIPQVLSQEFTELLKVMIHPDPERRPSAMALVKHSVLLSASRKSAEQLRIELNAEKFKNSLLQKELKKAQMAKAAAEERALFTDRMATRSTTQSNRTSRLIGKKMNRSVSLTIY
T2 sequence (Q96SW2 whole entry): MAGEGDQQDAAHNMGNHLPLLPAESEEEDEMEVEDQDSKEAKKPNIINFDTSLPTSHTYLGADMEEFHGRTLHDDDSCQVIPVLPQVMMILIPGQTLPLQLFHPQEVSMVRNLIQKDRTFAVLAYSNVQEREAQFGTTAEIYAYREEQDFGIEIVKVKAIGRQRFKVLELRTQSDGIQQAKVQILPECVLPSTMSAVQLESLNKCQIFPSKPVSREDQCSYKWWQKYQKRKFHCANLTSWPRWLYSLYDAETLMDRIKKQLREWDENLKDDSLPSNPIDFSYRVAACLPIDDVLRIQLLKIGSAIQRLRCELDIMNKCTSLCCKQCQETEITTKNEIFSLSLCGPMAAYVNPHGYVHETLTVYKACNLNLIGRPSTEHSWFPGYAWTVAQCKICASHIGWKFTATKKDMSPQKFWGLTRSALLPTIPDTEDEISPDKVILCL
T2 sequence (Q16531 whole entry partner): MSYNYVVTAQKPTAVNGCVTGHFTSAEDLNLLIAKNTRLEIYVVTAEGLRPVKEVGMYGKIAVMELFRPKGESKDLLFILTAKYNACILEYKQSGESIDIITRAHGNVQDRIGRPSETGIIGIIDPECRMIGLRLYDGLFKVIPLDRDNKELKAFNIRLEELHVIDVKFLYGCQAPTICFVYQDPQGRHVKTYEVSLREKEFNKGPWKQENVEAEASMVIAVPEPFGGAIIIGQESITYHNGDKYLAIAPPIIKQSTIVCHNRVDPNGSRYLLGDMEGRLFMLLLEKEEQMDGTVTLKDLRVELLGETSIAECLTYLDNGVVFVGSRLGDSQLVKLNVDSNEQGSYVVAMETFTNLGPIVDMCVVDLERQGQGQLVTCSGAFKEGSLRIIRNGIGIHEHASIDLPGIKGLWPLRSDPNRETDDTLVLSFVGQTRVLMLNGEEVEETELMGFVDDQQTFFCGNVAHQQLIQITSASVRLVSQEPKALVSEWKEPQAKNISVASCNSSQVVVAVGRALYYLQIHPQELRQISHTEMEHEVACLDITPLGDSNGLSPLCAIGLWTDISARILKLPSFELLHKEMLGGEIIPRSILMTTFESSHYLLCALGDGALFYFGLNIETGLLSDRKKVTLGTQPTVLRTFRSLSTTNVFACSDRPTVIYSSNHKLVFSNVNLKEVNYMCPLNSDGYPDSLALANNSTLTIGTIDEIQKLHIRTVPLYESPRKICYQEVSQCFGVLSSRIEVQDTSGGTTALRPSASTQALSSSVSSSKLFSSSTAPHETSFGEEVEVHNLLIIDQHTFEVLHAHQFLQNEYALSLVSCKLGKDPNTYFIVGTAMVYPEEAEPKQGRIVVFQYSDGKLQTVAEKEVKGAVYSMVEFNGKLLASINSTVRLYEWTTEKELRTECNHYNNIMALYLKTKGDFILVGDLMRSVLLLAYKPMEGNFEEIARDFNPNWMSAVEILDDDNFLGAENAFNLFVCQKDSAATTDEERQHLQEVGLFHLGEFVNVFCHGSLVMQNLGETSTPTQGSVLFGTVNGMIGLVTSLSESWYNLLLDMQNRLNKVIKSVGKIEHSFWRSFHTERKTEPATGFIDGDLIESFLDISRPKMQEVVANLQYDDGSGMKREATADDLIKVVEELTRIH
T5 sequence (P15170 whole entry): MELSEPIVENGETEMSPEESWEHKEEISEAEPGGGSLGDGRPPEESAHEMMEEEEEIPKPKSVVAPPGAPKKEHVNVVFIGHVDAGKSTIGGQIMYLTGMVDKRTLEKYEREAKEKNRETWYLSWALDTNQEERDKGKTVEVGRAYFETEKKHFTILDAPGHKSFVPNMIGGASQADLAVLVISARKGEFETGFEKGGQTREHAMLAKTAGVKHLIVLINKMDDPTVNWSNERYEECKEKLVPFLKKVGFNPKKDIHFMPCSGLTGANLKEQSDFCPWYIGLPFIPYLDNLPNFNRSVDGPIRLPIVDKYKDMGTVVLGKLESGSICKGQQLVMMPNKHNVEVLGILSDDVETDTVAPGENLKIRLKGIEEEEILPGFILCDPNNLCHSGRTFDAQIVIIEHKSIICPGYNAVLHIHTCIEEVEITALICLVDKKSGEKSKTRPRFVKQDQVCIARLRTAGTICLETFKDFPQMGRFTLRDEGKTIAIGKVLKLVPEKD
T5 sequence (Q96SW2 whole entry): as the sequence (Q96SW2 whole entry) above
T5 sequence (Q16531 whole entry partner): as the sequence (Q16531 whole entry partner) above
T3 sequence (Q13422 whole entry): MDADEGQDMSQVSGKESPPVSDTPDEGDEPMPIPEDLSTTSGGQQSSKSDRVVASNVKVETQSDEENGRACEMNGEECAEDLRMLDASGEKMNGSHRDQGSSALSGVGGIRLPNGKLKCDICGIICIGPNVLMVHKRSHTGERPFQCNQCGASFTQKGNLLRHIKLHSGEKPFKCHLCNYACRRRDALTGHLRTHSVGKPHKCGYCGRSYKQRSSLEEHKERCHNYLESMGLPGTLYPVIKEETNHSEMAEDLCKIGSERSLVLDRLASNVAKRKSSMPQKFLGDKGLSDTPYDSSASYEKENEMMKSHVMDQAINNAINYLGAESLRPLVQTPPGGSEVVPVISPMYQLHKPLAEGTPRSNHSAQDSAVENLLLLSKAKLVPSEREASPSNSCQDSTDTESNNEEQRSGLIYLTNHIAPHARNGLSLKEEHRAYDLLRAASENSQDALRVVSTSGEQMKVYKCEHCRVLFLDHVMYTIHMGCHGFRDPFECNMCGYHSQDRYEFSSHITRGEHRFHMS
T3 sequence (Q96SW2 whole entry): as the sequence (Q96SW2 whole entry) above
T3 sequence (Q16531 whole entry partner): as the sequence (Q16531 whole entry partner) above
T6 sequence (P48729 whole entry): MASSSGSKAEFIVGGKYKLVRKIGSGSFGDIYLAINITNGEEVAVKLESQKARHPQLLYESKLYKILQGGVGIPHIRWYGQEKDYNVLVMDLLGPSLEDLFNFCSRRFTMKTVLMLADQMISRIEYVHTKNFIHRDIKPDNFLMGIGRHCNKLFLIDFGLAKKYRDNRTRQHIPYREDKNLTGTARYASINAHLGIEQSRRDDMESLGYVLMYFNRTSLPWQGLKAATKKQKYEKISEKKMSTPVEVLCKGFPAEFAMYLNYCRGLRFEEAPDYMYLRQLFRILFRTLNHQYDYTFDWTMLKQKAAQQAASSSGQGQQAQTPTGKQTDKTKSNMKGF
T6 sequence (Q96SW2 whole entry): as the sequence (Q96SW2 whole entry) above
T6 sequence (Q16531 whole entry partner): as the sequence (Q16531 whole entry partner) above
T1 sequence (Q9UKT9 whole entry): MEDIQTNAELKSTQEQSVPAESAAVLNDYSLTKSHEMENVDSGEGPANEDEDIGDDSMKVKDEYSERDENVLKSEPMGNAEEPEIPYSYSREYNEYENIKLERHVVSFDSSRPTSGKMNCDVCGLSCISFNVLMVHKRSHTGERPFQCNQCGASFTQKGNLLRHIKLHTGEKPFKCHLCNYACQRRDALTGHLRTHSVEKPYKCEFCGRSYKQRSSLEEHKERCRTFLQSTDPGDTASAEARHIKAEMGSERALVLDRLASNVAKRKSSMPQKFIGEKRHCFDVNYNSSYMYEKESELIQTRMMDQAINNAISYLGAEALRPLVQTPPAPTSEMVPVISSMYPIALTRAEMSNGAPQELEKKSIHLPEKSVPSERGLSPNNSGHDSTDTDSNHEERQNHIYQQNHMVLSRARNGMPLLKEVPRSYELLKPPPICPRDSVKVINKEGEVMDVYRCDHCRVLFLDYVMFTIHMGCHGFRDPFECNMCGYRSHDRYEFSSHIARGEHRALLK
T1 sequence (Q96SW2 whole entry): as the sequence (Q96SW2 whole entry) above
T1 sequence (Q16531 whole entry partner): as the sequence (Q16531 whole entry partner) above
T4 sequence (Q96SW2 whole entry): as the sequence (Q96SW2 whole entry) above

O=C1CCC(N2Cc3cc(CN4CCC(N5C(=O)COc6cc(F)ccc65)CC4)ccc3C2=O)C(=O)N1 (stereo not drawn) [GT-04860, 3-(5-((4-(7-fluoro-3-oxo-2,3-dihydro-4H-benzo[b][1,4]oxazin-4-yl)piperidin-1-yl)methyl)-1-oxoisoindolin-2-yl)piperidine-2,6-dione]
IKZF3 substrate protein remaining % (IKZF3): A (0% ≤ substrate protein remaining % ≤ 80%) | Weel substrate protein remaining % (WEE1): B (80%< substrate protein remaining %≤ 100%) | IKZF 1 substrate protein remaining % (IKZF1): A (0% ≤ substrate protein remaining % ≤ 80%) | pIC50 [1]: > 6.30 | GSPT1 substrate protein remaining % (GSPT1): A (0% ≤ substrate protein remaining % ≤ 80%) | CK1a substrate protein remaining % (CK1α): B (80%< substrate protein remaining %≤ 100%) | IKZF2 substrate protein remaining % (IKZF2): A (0% ≤ substrate protein remaining % ≤ 80%)

O=C1CCC(N2Cc3cc(CN4CCN(c5ncnc6sc(Br)cc56)CC4)ccc3C2=O)C(=O)N1 (stereo not drawn) [GT-04861, 3-(5-((4-(6-bromothieno[2,3-d]pyrimidin-4-yl)piperazin-1-yl)methyl)-1-oxoisoindolin-2-yl)piperidine-2,6-dione]
IKZF3 substrate protein remaining % (IKZF3): A (0% ≤ substrate protein remaining % ≤ 80%) | Weel substrate protein remaining % (WEE1): A (0% ≤ substrate protein remaining % ≤ 80%) | IKZF 1 substrate protein remaining % (IKZF1): A (0% ≤ substrate protein remaining % ≤ 80%) | pIC50 [1, 2]: > 6.30 | GSPT1 substrate protein remaining % (GSPT1): A (0% ≤ substrate protein remaining % ≤ 80%) | CK1a substrate protein remaining % (CK1α): A (0% ≤ substrate protein remaining % ≤ 80%) | IKZF2 substrate protein remaining % (IKZF2): A (0% ≤ substrate protein remaining % ≤ 80%)

O=C1CCC(N2Cc3cc(CN4CCN(c5ncnc6sc(-c7ccccc7)cc56)CC4)ccc3C2=O)C(=O)N1 (stereo not drawn) [GT-04862, 3-(1-oxo-5-((4-(6-phenylthieno[2,3-d]pyrimidin-4-yl)piperazin-1-yl)methyl)isoindolin-2-yl)piperidine-2,6-dione]
IKZF3 substrate protein remaining % (IKZF3): A (0% ≤ substrate protein remaining % ≤ 80%) | Weel substrate protein remaining % (WEE1): A (0% ≤ substrate protein remaining % ≤ 80%) | IKZF 1 substrate protein remaining % (IKZF1): A (0% ≤ substrate protein remaining % ≤ 80%) | pIC50 [1, 2]: > 6.30 | GSPT1 substrate protein remaining % (GSPT1): A (0% ≤ substrate protein remaining % ≤ 80%) | CK1a substrate protein remaining % (CK1α): A (0% ≤ substrate protein remaining % ≤ 80%) | IKZF2 substrate protein remaining % (IKZF2): A (0% ≤ substrate protein remaining % ≤ 80%)

O=C1CCC(N2Cc3cc(CN4CC5CC(C4)N5c4cccc(Cl)c4Cl)ccc3C2=O)C(=O)N1 (stereo not drawn) [GT-04897, 3-(5-((6-(2,3-dichlorophenyl)-3,6-diazabicyclo[3.1.1]heptan-3-yl)methyl)-1-oxoisoindolin-2-yl)piperidine-2,6-dione]
IKZF3 substrate protein remaining % (IKZF3): B (80%< substrate protein remaining %≤ 100%) | Weel substrate protein remaining % (WEE1): B (80%< substrate protein remaining %≤ 100%) | IKZF 1 substrate protein remaining % (IKZF1): B (80%< substrate protein remaining %≤ 100%) | pIC50 [1, 2]: 5.72 to 5.82 | GSPT1 substrate protein remaining % (GSPT1): A (0% ≤ substrate protein remaining % ≤ 80%) | CK1a substrate protein remaining % (CK1α): B (80%< substrate protein remaining %≤ 100%) | IKZF2 substrate protein remaining % (IKZF2): B (80%< substrate protein remaining %≤ 100%)

O=C1CCC(N2Cc3cc(CN4CC5CCC(C4)N5c4cccc(Cl)c4Cl)ccc3C2=O)C(=O)N1 (stereo not drawn) [GT-04899, 3-(5-((8-(2,3-dichlorophenyl)-3,8-diazabicyclo[3.2.1]octan-3-yl)methyl)-1-oxoisoindolin-2-yl)piperidine-2,6-dione]
IKZF3 substrate protein remaining % (IKZF3): B (80%< substrate protein remaining %≤ 100%) | Weel substrate protein remaining % (WEE1): B (80%< substrate protein remaining %≤ 100%) | IKZF 1 substrate protein remaining % (IKZF1): A (0% ≤ substrate protein remaining % ≤ 80%) | pIC50 [1, 2]: 6.00 to 6.30 | GSPT1 substrate protein remaining % (GSPT1): B (80%< substrate protein remaining %≤ 100%) | CK1a substrate protein remaining % (CK1α): B (80%< substrate protein remaining %≤ 100%) | IKZF2 substrate protein remaining % (IKZF2): B (80%< substrate protein remaining %≤ 100%)

O=C1CCC(N2Cc3cc(CN4CCN(c5noc6ccncc56)CC4)ccc3C2=O)C(=O)N1 (stereo not drawn) [GT-04904, 3-(5-((4-(isoxazolo[4,5-c]pyridin-3-yl)piperazin-1-yl)methyl)-1-oxoisoindolin-2-yl)piperidine-2,6-dione]
IKZF3 substrate protein remaining % (IKZF3): B (80%< substrate protein remaining %≤ 100%) | Weel substrate protein remaining % (WEE1): B (80%< substrate protein remaining %≤ 100%) | IKZF 1 substrate protein remaining % (IKZF1): A (0% ≤ substrate protein remaining % ≤ 80%) | pIC50 [1, 2]: > 6.30 | GSPT1 substrate protein remaining % (GSPT1): B (80%< substrate protein remaining %≤ 100%) | CK1a substrate protein remaining % (CK1α): B (80%< substrate protein remaining %≤ 100%) | IKZF2 substrate protein remaining % (IKZF2): B (80%< substrate protein remaining %≤ 100%)

O=C1CCC(N2Cc3cc(CN4CCN(c5nc(N6CCOCC6)c6sccc6n5)CC4)ccc3C2=O)C(=O)N1 (stereo not drawn) [GT-04906, 3-(5-((4-(4-morpholinothieno[3,2-d]pyrimidin-2-yl)piperazin-1-yl)methyl)-1-oxoisoindolin-2-yl)piperidine-2,6-dione]
IKZF3 substrate protein remaining % (IKZF3): B (80%< substrate protein remaining %≤ 100%) | Weel substrate protein remaining % (WEE1): B (80%< substrate protein remaining %≤ 100%) | IKZF 1 substrate protein remaining % (IKZF1): A (0% ≤ substrate protein remaining % ≤ 80%) | pIC50 [1, 2]: > 6.30 | GSPT1 substrate protein remaining % (GSPT1): B (80%< substrate protein remaining %≤ 100%) | CK1a substrate protein remaining % (CK1α): B (80%< substrate protein remaining %≤ 100%) | IKZF2 substrate protein remaining % (IKZF2): B (80%< substrate protein remaining %≤ 100%)

O=C1CCC(N2Cc3cc(CN4CC=C(c5ncnc6scc(-c7ccccc7)c56)CC4)ccc3C2=O)C(=O)N1 (stereo not drawn) [GT-04908, 3-(1-oxo-5-((4-(5-phenylthieno[2,3-d]pyrimidin-4-yl)-3,6-dihydropyridin-1(2H)-yl)methyl)isoindolin-2-yl)piperidine-2,6-dione]
IKZF3 substrate protein remaining % (IKZF3): A (0% ≤ substrate protein remaining % ≤ 80%) | Weel substrate protein remaining % (WEE1): A (0% ≤ substrate protein remaining % ≤ 80%) | IKZF 1 substrate protein remaining % (IKZF1): A (0% ≤ substrate protein remaining % ≤ 80%) | pIC50 [1, 2]: > 6.30 | GSPT1 substrate protein remaining % (GSPT1): A (0% ≤ substrate protein remaining % ≤ 80%) | CK1a substrate protein remaining % (CK1α): B (80%< substrate protein remaining %≤ 100%) | IKZF2 substrate protein remaining % (IKZF2): A (0% ≤ substrate protein remaining % ≤ 80%)

O=C1CCC(N2Cc3cc(CN4CCN(c5ccnc(Br)c5F)CC4)ccc3C2=O)C(=O)N1 (stereo not drawn) [GT-04928, 3-(5-((4-(2-bromo-3-fluoropyridin-4-yl)piperazin-1-yl)methyl)-1-oxoisoindolin-2-yl)piperidine-2,6-dione]
IKZF3 substrate protein remaining % (IKZF3): B (80%< substrate protein remaining %≤ 100%) | Weel substrate protein remaining % (WEE1): B (80%< substrate protein remaining %≤ 100%) | IKZF 1 substrate protein remaining % (IKZF1): B (80%< substrate protein remaining %≤ 100%) | pIC50 [1, 2]: > 6.30 | GSPT1 substrate protein remaining % (GSPT1): A (0% ≤ substrate protein remaining % ≤ 80%) | CK1a substrate protein remaining % (CK1α): B (80%< substrate protein remaining %≤ 100%) | IKZF2 substrate protein remaining % (IKZF2): B (80%< substrate protein remaining %≤ 100%)

O=C1CCC(N2Cc3cc(CN4CCN(c5ccnc(O)c5F)CC4)ccc3C2=O)C(=O)N1 (stereo not drawn) [GT-04929, 3-(5-((4-(3-fluoro-2-hydroxypyridin-4-yl)piperazin-1-yl)methyl)-1-oxoisoindolin-2-yl)piperidine-2,6-dione]
IKZF3 substrate protein remaining % (IKZF3): B (80%< substrate protein remaining %≤ 100%) | Weel substrate protein remaining % (WEE1): B (80%< substrate protein remaining %≤ 100%) | IKZF 1 substrate protein remaining % (IKZF1): A (0% ≤ substrate protein remaining % ≤ 80%) | pIC50 [1, 2]: 6.00 to 6.30 | GSPT1 substrate protein remaining % (GSPT1): A (0% ≤ substrate protein remaining % ≤ 80%) | CK1a substrate protein remaining % (CK1α): B (80%< substrate protein remaining %≤ 100%) | IKZF2 substrate protein remaining % (IKZF2): B (80%< substrate protein remaining %≤ 100%)

O=C1CCC(N2Cc3cc(CN4CCC(c5ncc6ccsc6n5)CC4)ccc3C2=O)C(=O)N1 (stereo not drawn) [GT-04933, 3-(1-oxo-5-((4-(thieno[2,3-d]pyrimidin-2-yl)piperidin-1-yl)methyl)isoindolin-2-yl)piperidine-2,6-dione]
IKZF3 substrate protein remaining % (IKZF3): A (0% ≤ substrate protein remaining % ≤ 80%) | Weel substrate protein remaining % (WEE1): A (0% ≤ substrate protein remaining % ≤ 80%) | IKZF 1 substrate protein remaining % (IKZF1): A (0% ≤ substrate protein remaining % ≤ 80%) | pIC50 [1, 2]: 6.00 to 6.30 | GSPT1 substrate protein remaining % (GSPT1): A (0% ≤ substrate protein remaining % ≤ 80%) | CK1a substrate protein remaining % (CK1α): A (0% ≤ substrate protein remaining % ≤ 80%) | IKZF2 substrate protein remaining % (IKZF2): A (0% ≤ substrate protein remaining % ≤ 80%)

CCc1cnc(C2CCN(Cc3ccc4c(c3)CN(C3CCC(=O)NC3=O)C4=O)CC2)nc1 (stereo not drawn) [GT-04936, 3-(5-((4-(5-ethylpyrimidin-2-yl)piperidin-1-yl)methyl)-1-oxoisoindolin-2-yl)piperidine-2,6-dione]
IKZF3 substrate protein remaining % (IKZF3): A (0% ≤ substrate protein remaining % ≤ 80%) | Weel substrate protein remaining % (WEE1): A (0% ≤ substrate protein remaining % ≤ 80%) | IKZF 1 substrate protein remaining % (IKZF1): A (0% ≤ substrate protein remaining % ≤ 80%) | pIC50 [1, 2]: 5.82 to 6.00 | GSPT1 substrate protein remaining % (GSPT1): A (0% ≤ substrate protein remaining % ≤ 80%) | CK1a substrate protein remaining % (CK1α): A (0% ≤ substrate protein remaining % ≤ 80%) | IKZF2 substrate protein remaining % (IKZF2): A (0% ≤ substrate protein remaining % ≤ 80%)
